Results from patent publication US9610285B2, “Compositions for controlling food intake and uses therefor” (UNIVERSITY OF FLORIDA RESEARCH FOUNDATION, INCORPORATED, priority 2011, dated 2017).
Marks after values point to notes of the source that are not given here.

How the values were obtained:
Assay type in all cases: in vivo, rat
[1] = tested on: rats; assay: Binge eating rats, palatable food and chow intake (Example 1, FIGS. 1-5); conditions: drug alone, i.p., figure legends
Method: Baclofen (at 1.0 and 1.8 mg/kg, administered i.p.)
Baclofen+naltrexone (mixed low and mixed high)
1. Binge Sugar (10% sucrose solution, w/v)
2. Binge Fat (35% oil emulsion, w/v)
3. Binge Sugar/Fat (10% sucrose, 35% oil emulsion, w/v)
Groups of animals (rats) were maintained on their diets for 3 weeks to establish stable binge eating behavior. After this period of time, the rats were administered three days of daily i.p. injections of saline (to acclimate to the injection procedure), and sugar/chow intake was measured after the first hour of access and then hourly for the next 3 hours, as well as at the end of the 12-h access period. After this three-day period, rats were given baclofen+naloxone, and measurements taken as described above. Other dosage amounts of baclofen and naloxone were tested, as were the effects of these compounds alone (with measurements being performed as described above). Vehicle injections were performed between the various tests in order to allow for suitable clearance of compounds from the animals. […] Thus, the treatment appears ideally suited for food addicts, hedonic overeaters and changes food choice but not appetite.

[2] = tested on: Male Sprague-Dawley rats; assay: Palatable food intake following drug injections in binge-eating rats (Example 2); conditions: for Effect on palatable food (fat) intake, in words / Effect on palatable food (sugar) intake, in words / Effect on palatable food (sugar-fat) intake, in words: one-way ANOVA over saline, low and high dose
Source text: (§1) Male Sprague-Dawley rats, 250-300 g at the onset of the experiment, were obtained from Taconic Farms (Germantown, N.Y., USA). Rats were housed individually on a 12-h reversed light/dark cycle and given 1 wk to acclimate before diet training began.
(§2) The rats were divided into groups (n=10/group) matched for body weight and assigned to one of the following dietary conditions: (1) Binge Sugar, (2) Binge Fat or (3) Binge Sugar-Fat. All rats received palatable diets and standard rodent chow (LabDiet #5001, PMI Nutrition International, Richmond, Ind., USA; 10% fat, 20% protein, 70% carbohydrate, 3.02 kcal/g) for 12 h/day, starting 4 h after the onset of the dark cycle. Water was available ad libitum.
(§3) All palatable foods were mixed in the laboratory. The Binge Sugar group had access to a 10% (w/v) sucrose solution (Domino® Granulated Pure Cane Sugar, dissolved in tap water, 0.4 kcal/mL), the Binge Fat group had access to a 35% (w/v) fat emulsion (3.1 kcal/mL) and the Binge Sugar-Fat group had access to a 10% (w/v) sugar solution and 35% (w/v) fat emulsion (3.5 kcal/mL). Both emulsions were made with Wesson® Pure Vegetable Oil in tap water and 0.6% (w/v) Emplex, a commercially available emulsifier (American Ingredients Company, Kansas City, Mo., USA). Palatable food intakes were recorded daily. Chow intake was recorded weekly. Body weights were taken at the beginning and end of the 21-day diet period.
(§4) After 21 days on these diets, drug testing began. During testing, diet regimens were maintained. Approximately 3.5 h into the dark cycle, animals were weighed and intraperitoneal (i.p.) injections of drug were given (according to the schedule below). 30 min later (4 h into the dark cycle) palatable food and chow were made available to the rats. For the first 3 days, rats were acclimated to handling and daily vehicle injections (0.9% saline, Hospira, Lake Forest, Ill., USA, i.p. 1 mL/kg). For days 4-16 of drug testing, either vehicle or drug was alternatively administered, starting with drug on day 4. […] Intake of palatable food and chow was measured hourly after injection for 4 h and again at the end of the 12-h access period.
(§5) Palatable food and standard chow intakes following saline injections between days 4-16 were averaged. All data were analyzed using one-way ANOVAs with post hoc Multiple Comparisons, when appropriate. In Tables 4-7, values having the same letter superscript are statistically different from one another.

[3] = tested on: Male Sprague-Dawley rats; assay: Total caloric intake following drug injections in binge-eating rats (Example 2); conditions: for Effect on total caloric intake, in words: one-way ANOVA over saline, low and high dose
Source text: as §1, §2, §3, §4, §5

[4] = tested on: Male Sprague-Dawley rats; assay: Standard chow intake following drug injections in binge-eating rats (Example 2); conditions: for Effect on standard chow intake, in words: one-way ANOVA over saline, low and high dose
Source text: as §1, §2, §3, §4, §5

[5] = Binge Fat group, 1 h, high dose (naltrexone 1.0 mg/kg, baclofen 1.8 mg/kg, or both, i.p.)
[6] = Binge Fat group, 1 h, low dose (naltrexone 0.1 mg/kg, baclofen 1.0 mg/kg, or both, i.p.)
[7] = Binge Fat group, 12 h, high dose (naltrexone 1.0 mg/kg, baclofen 1.8 mg/kg, or both, i.p.)
[8] = Binge Fat group, 12 h, low dose (naltrexone 0.1 mg/kg, baclofen 1.0 mg/kg, or both, i.p.)
[9] = Binge Sugar group, 1 h, high dose (naltrexone 1.0 mg/kg, baclofen 1.8 mg/kg, or both, i.p.)
[10] = Binge Sugar group, 1 h, low dose (naltrexone 0.1 mg/kg, baclofen 1.0 mg/kg, or both, i.p.)
[11] = Binge Sugar group, 12 h, high dose (naltrexone 1.0 mg/kg, baclofen 1.8 mg/kg, or both, i.p.)
[12] = Binge Sugar group, 12 h, low dose (naltrexone 0.1 mg/kg, baclofen 1.0 mg/kg, or both, i.p.)
[13] = Binge Sugar-Fat group, 1 h, high dose (naltrexone 1.0 mg/kg, baclofen 1.8 mg/kg, or both, i.p.)
[14] = Binge Sugar-Fat group, 1 h, low dose (naltrexone 0.1 mg/kg, baclofen 1.0 mg/kg, or both, i.p.)
[15] = Binge Sugar-Fat group, 12 h, high dose (naltrexone 1.0 mg/kg, baclofen 1.8 mg/kg, or both, i.p.)
[16] = Binge Sugar-Fat group, 12 h, low dose (naltrexone 0.1 mg/kg, baclofen 1.0 mg/kg, or both, i.p.)

## NC[C@H](CC(=O)O)c1ccc(Cl)cc1 [Baclofen, R-baclofen]
[1]; oil containing groups (Binge Fat, Binge Sugar/Fat)
  Effect on intake of oil-containing palatable foods: reduces intake
[1]; sugar-binging rats
  Effect on binge eating of sugar: no effect
[2]; [5]
  1-H Palatable Food Intake (Kcal): 6.5 ± 2.0^c,d Kcal
  Palatable food intake as a percent of intake after saline injections, 1-H Intake (%): 38%
[2]; [6]
  1-H Palatable Food Intake (Kcal): 17.9 ± 2.4^d Kcal
  Palatable food intake as a percent of intake after saline injections, 1-H Intake (%): 106%
[2]; Binge Fat group, 1 h
  Effect on palatable food (fat) intake, in words: decreased
[2]; [7]
  12-H Palatable Food Intake (Kcal): 32.6 ± 4.9^e,f Kcal
  Palatable food intake as a percent of intake after saline injections, 12-H Intake (%): 56%
[2]; [8]
  12-H Palatable Food Intake (Kcal): 54.5 ± 4.5^f Kcal
  Palatable food intake as a percent of intake after saline injections, 12-H Intake (%): 93%
[2]; Binge Fat group, 12 h
  Effect on palatable food (fat) intake, in words: decreased
[2]; [9]
  1-H Palatable Food Intake: 2.7 ± 0.5 kcal
  Palatable food intake as a percent of intake after saline injections, 1-H Intake (%): 96%
[2]; [10]
  1-H Palatable Food Intake: 3.6 ± 0.8 kcal
  Palatable food intake as a percent of intake after saline injections, 1-H Intake (%): 131%
[2]; Binge Sugar group, 1 h
  Effect on palatable food (sugar) intake, in words: no effect
[2]; [11]
  12-H Palatable Food Intake (Kcal): 11.4 ± 2.4^ Kcal
  Palatable food intake as a percent of intake after saline injections, 12-H Intake (%): 90%
[2]; [12]
  12-H Palatable Food Intake: 11.3 ± 2.5 kcal
  Palatable food intake as a percent of intake after saline injections, 12-H Intake (%): 88%
[2]; Binge Sugar group, 12 h
  Effect on palatable food (sugar) intake, in words: no effect
[2]; [13]
  1-H Palatable Food Intake (Kcal): 8.6 ± 1.6^j,k Kcal
  Palatable food intake as a percent of intake after saline injections, 1-H Intake (%): 37%
[2]; [14]
  1-H Palatable Food Intake (Kcal): 23.5 ± 3.9^j Kcal
  Palatable food intake as a percent of intake after saline injections, 1-H Intake (%): 100%
[2]; Binge Sugar-Fat group, 1 h
  Effect on palatable food (sugar-fat) intake, in words: significantly decreased
[2]; [15]
  12-H Palatable Food Intake (Kcal): 57.4 ± 4.1^p Kcal
  Palatable food intake as a percent of intake after saline injections, 12-H Intake (%): 75%
[2]; [16]
  12-H Palatable Food Intake: 64.9 ± 6.6 kcal
  Palatable food intake as a percent of intake after saline injections, 12-H Intake (%): 85%
[2]; Binge Sugar-Fat group, 12 h
  Effect on palatable food (sugar-fat) intake, in words: suppressed intake
[3]; [5]
  1-H Total Caloric Intake (Kcal): 17.0 ± 3.0^e,f Kcal
[3]; [6]
  1-H Total Caloric Intake (Kcal): 30.1 ± 4.1^f Kcal
[3]; [7]
  12-H Total Caloric Intake (Kcal): 67.7 ± 9.9^g Kcal
[3]; [8]
  12-H Total Caloric Intake: 88.6 ± 7.8 kcal
[3]; [9]
  1-H Total Caloric Intake: 21.9 ± 4.4 kcal
[3]; [10]
  1-H Total Caloric Intake: 26.7 ± 2.3 kcal
[3]; [11]
  12-H Total Caloric Intake: 74.0 ± 6.3 kcal
[3]; [12]
  12-H Total Caloric Intake: 84.8 ± 7.0 kcal
[3]; [13]
  1-H Total Caloric Intake (Kcal): 15.0 ± 2.6^k,m Kcal
[3]; [14]
  1-H Total Caloric Intake (Kcal): 34.8 ± 5.6^m Kcal
[3]; [15]
  12-H Total Caloric Intake: 81.4 ± 7.3 kcal
[3]; [16]
  12-H Total Caloric Intake: 89.5 ± 8.8 kcal
[3]; Fat group, 1 h
  Effect on total caloric intake, in words: significantly reduced
[3]; Fat group, 12 h
  Effect on total caloric intake, in words: significantly reduced
[3]; Sugar group, 1 h
  Effect on total caloric intake, in words: no effect
[3]; Sugar group, 12 h
  Effect on total caloric intake, in words: no effect
[3]; Sugar-Fat group, 1 h
  Effect on total caloric intake, in words: reduced
[3]; Sugar-Fat group, 12 h
  Effect on total caloric intake, in words: not apparent
[4]; [5]
  1-H Chow Intake: 10.6 ± 1.0 kcal
[4]; [6]
  1-H Chow Intake: 12.2 ± 1.7 kcal
[4]; [7]
  12-H Chow Intake: 35.0 ± 5.0 kcal
[4]; [8]
  12-H Chow Intake: 34.1 ± 3.3 kcal
[4]; [9]
  1-H Chow Intake: 19.3 ± 3.4 kcal
[4]; [10]
  1-H Chow Intake: 23.0 ± 1.5 kcal
[4]; [11]
  12-H Chow Intake: 62.5 ± 3.8 kcal
[4]; [12]
  12-H Chow Intake (Kcal): 73.5 ± 4.5^c Kcal
[4]; [13]
  1-H Chow Intake (Kcal): 6.3 ± 1.0^i Kcal
[4]; [14]
  1-H Chow Intake (Kcal): 11.3 ± 1.7^i Kcal
[4]; Binge Sugar-Fat group, 1 h
  Effect on standard chow intake, in words: less chow intake at the high dose compared to the low dose
[4]; [15]
  12-H Chow Intake: 24.1 ± 3.1 kcal
[4]; [16]
  12-H Chow Intake: 24.6 ± 2.2 kcal
[4]; Fat group, 1 h
  Effect on standard chow intake, in words: no effect
[4]; Fat group, 12 h
  Effect on standard chow intake, in words: no effect
[4]; Sugar group, 1 h
  Effect on standard chow intake, in words: no effect
[4]; Sugar group, 12 h
  Effect on standard chow intake, in words: stimulated chow intake
